Experimental data published in patent US20100048597A1 (Novartis AG, priority 2006, published 2010).
Like-named read-outs stand apart in the source and are kept apart here.

How the values were obtained:
Assay type in all cases: biochemical
CDK9/cyclinT1 = target: T1, CDK9/cyclinT1 (Homo sapiens, UniProt P50750); experiment: CDK9/cyclinT1 kinase assay, IMAP fluorescence polarization
T1 construct: purchased Millipore
Method: (§1) Kinase assays were performed on recombinant purified enzymes using the non-radioactive IMAP fluorescence polarization assay format.
(§2) Compound stocks were prepared and diluted in DMSO and were added to kinase reactions at a 1/100 dilution for a final concentration of 1% DMSO. The components were added together to final concentrations listed in the tables below and incubated for two hours at room temperature.
(§3) The reactions were stopped by addition of stop solution.
CDK9/CDK1/CDK7: final stop concentration is 1× Developer buffer (85% A/15% B), IMAP beads 1/400
(§4) The samples were allowed to incubate for one more hour at room temperature and then the fluorescence polarization was measured. The plate normalized millipolarization (mP) values were plotted against the log of compound concentration for each compound and IC50 values were calculated using the spotfire IC50 calculator and confirmed by visual analysis.

CDK1/cyclinB = target: T2, CDK1/cyclinB (Homo sapiens, UniProt P06493); experiment: CDK1/cyclinB kinase assay, IMAP fluorescence polarization
T2 construct: purchased Millipore
T2 sequence (P06493 whole entry): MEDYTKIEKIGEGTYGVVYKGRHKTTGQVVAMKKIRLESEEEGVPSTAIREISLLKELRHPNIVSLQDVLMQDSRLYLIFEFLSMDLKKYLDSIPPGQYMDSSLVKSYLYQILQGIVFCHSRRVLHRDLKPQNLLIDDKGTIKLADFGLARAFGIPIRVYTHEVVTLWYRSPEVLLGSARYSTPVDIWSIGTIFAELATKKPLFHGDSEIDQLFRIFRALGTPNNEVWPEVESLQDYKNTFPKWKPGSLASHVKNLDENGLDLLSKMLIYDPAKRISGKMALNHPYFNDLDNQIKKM
T2 sequence (P14635 whole entry partner): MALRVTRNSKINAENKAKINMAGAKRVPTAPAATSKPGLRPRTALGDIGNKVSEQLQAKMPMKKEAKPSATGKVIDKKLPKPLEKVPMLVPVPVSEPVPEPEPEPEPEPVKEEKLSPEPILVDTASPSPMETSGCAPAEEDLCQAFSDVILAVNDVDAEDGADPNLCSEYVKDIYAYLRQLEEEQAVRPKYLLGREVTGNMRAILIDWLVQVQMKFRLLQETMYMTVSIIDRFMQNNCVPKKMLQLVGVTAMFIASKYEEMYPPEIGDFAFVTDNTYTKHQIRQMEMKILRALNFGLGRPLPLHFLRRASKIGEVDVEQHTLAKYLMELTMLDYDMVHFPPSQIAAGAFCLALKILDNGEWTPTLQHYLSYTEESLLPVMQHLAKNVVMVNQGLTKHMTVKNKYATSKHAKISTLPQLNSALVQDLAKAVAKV
Method: as §1, §2, §3
The samples were allowed to incubate for one more hour at room temperature and then the fluorescence polarization was measured.

CDK2/cyclinA = target: T3, CDK2/cyclinA (Homo sapiens, UniProt P24941); experiment: CDK2/cyclinA kinase assay, IMAP fluorescence polarization
T3 construct: purchased Millipore
Method: as §1, §2, §3
CDK2: final stop concentration is 1× Developer buffer (100% A), IMAP beads 1/400
as §4

T1 sequence (P50750 whole entry): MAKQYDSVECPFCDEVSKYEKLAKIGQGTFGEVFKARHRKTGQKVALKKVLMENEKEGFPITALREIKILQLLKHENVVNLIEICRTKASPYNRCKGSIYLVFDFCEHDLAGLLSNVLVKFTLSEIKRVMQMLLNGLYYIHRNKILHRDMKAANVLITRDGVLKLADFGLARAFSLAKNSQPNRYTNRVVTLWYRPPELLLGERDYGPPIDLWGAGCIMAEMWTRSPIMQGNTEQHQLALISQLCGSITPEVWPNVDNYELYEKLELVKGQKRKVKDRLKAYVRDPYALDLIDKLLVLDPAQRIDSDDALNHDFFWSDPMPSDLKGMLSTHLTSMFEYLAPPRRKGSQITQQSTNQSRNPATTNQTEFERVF
T1 sequence (O60563 whole entry partner): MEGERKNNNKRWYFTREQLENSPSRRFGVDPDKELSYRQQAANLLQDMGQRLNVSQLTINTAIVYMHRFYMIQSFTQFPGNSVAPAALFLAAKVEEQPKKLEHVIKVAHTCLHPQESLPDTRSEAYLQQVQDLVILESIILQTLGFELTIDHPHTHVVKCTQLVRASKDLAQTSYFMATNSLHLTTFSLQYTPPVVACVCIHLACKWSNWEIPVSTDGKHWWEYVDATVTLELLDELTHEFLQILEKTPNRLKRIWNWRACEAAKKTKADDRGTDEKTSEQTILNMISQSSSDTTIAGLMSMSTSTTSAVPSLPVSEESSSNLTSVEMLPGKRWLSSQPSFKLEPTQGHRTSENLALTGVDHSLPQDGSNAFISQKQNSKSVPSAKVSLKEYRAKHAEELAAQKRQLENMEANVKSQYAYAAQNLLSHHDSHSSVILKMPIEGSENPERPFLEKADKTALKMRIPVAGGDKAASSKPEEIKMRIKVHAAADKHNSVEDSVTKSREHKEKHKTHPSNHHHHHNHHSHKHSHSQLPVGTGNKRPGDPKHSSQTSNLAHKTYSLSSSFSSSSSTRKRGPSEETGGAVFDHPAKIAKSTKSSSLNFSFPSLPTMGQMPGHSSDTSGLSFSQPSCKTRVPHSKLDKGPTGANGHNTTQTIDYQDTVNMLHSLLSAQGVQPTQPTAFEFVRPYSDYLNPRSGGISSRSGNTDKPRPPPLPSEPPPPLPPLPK

Row | Compound | IC50 (CDK9/cyclinT1) [µM] | IC50 (CDK1/cyclinB; read-out: CDK1 IC50) [µM] | IC50 (CDK2/cyclinA) [µM] | IC50 (CDK1/cyclinB) [µM]
1 | CCCCNc1ncccc1-c1nc(Nc2cccc(Cl)c2)ncc1C [Compound 57, [4-(2-Butylamino-pyridin-3-yl)-5-methyl-pyrimidin-2-yl]-(3-chloro-phenyl)-amine] | < 5 | > 50 | > 50 | –
2 | Cc1cnc(Nc2cccc(Cl)c2)nc1-c1cccnc1NCCCn1ccnc1C [Compound 82, (3-Chloro-phenyl)-(5-methyl-4-{2-[3-(2-methyl-imidazol-1-yl)-propylamino]-pyridin-3-yl}-pyrimidin-2-yl)-amine] | < 5 | – | 15 to 50 | 5 to 15
3 | COCCCNc1ncccc1-c1ccnc(Nc2cccc(Cl)c2)n1 [Compound 75, (3-Chloro-phenyl)-{4-[2-(3-methoxy-propylamino)-pyridin-3-yl]-pyrimidin-2-yl}-amine] | < 5 | 5 to 15 | < 5 | –
4 | CNCCCNc1ncccc1-c1ccnc(Nc2cccc(Cl)c2)n1 [Compound 62, N-{3-[2-(3-Chloro-phenylamino)-pyrimidin-4-yl]-pyridin-2-yl}-N′-methyl-propane-1,3-diamine] | < 5 | 5 to 15 | 5 to 15 | –
5 | O=C1CCCN1CCCNc1ncccc1-c1ccnc(Nc2cccc(Cl)c2)n1 [Compound 77, 1-(3-{3-[2-(3-Chloro-phenylamino)-pyrimidin-4-yl]-pyridin-2-ylamino}-propyl)-pyrrolidin-2-one] | < 5 | < 5 | < 5 | –
6 | CN(C)CCNc1ncccc1-c1ccnc(Nc2cccc(Cl)c2)n1 [Compound 53, N-{3-[2-(3-Chloro-phenylamino)-pyrimidin-4-yl]-pyridin-2-yl}-N′,N′-dimethyl-ethane-1,2-diamine] | < 5 | 15 to 50 | 5 to 15 | –
7 | CC(=O)NCCCNc1ncccc1-c1nc(Nc2cccc(Cl)c2)ncc1C [Compound 66, N-(3-{3-[2-(3-Chloro-phenylamino)-5-methyl-pyrimidin-4-yl]-pyridin-2-ylamino}-propyl)-acetamide] | < 5 | > 50 | 15 to 50 | –
8 | Clc1cccc(Nc2nccc(-c3cccnc3NCC3CCCCC3)n2)c1 [Compound 50, (3-Chloro-phenyl)-{4-[2-(cyclohexylmethyl-amino)-pyridin-3-yl]-pyrimidin-2-yl}-amine] | > 50 | > 50 | > 50 | –
9 | Clc1cccc(Nc2nccc(-c3cccnc3NCCCN3CCOCC3)n2)c1 [Compound 78, (3-Chloro-phenyl)-{4-[2-(3-morpholin-4-yl-propylamino)-pyridin-3-yl]-pyrimidin-2-yl}-amine] | < 5 | 5 to 15 | < 5 | –
10 | Cc1nccn1CCCNc1ncccc1-c1ccnc(Nc2cccc(Cl)c2)n1 [Compound 81, (3-Chloro-phenyl)-(4-{2-[3-(2-methyl-imidazol-1-yl)-propylamino]-pyridin-3-yl}-pyrimidin-2-yl)-amine] | < 5 | < 5 | < 5 | –
11 | Cc1cnc(Nc2cccc(Cl)c2)nc1-c1cccnc1NCCCN [Compound 56, N-{3-[2-(3-Chloro-phenylamino)-5-methyl-pyrimidin-4-yl]-pyridin-2-yl}-propane-1,3-diamine] | < 5 | < 5 | < 5 | –
12 | COc1ncccc1-c1ccnc(Nc2cccc(C(=O)NCCN(C)C)c2)n1 [Compound 97, N-(2-Dimethylamino-ethyl)-3-[4-(2-methoxy-pyridin-3-yl)-pyrimidin-2-ylamino]-benzamide] | < 5 | 5 to 15 | 5 to 15 | –
13 | CC(=O)NCCCCNc1ncccc1-c1ccnc(Nc2cccc(Cl)c2)n1 [Compound 85, N-(4-{3-[2-(3-Chloro-phenylamino)-pyrimidin-4-yl]-pyridin-2-ylamino}-butyl)-acetamide] | < 5 | < 5 | < 5 | –
14 | COc1ncccc1-c1ccnc(Nc2cccnc2)n1 [Compound 90, [4-(2-Methoxy-pyridin-3-yl)-pyrimidin-2-yl]-pyridin-3-yl-amine] | > 50 | > 50 | > 50 | –
15 | COc1ncccc1-c1ccnc(Nc2cccc(C(N)=O)c2)n1 [Compound 95, 3-[4-(2-Methoxy-pyridin-3-yl)-pyrimidin-2-ylamino]-benzamide] | < 5 | < 5 | < 5 | –
16 | CC(=O)OCCCNc1ncccc1-c1ccnc(Nc2cccc(Cl)c2)n1 [Compound 76, Acetic acid 3-{3-[2-(3-chloro-phenylamino)-pyrimidin-4-yl]-pyridin-2-ylamino}-propyl ester] | < 5 | 5 to 15 | < 5 | –
17 | CCNC(=O)c1cccc(Nc2nccc(-c3cccnc3OC)n2)c1 [Compound 96, N-Ethyl-3-[4-(2-methoxy-pyridin-3-yl)-pyrimidin-2-ylamino]-benzamide] | < 5 | < 5 | < 5 | –
18 | CC(C)(C)CC(=O)NCCCNc1ncccc1-c1ccnc(Nc2cccc(Cl)c2)n1 [Compound 71, N-(3-{3-[2-(3-Chloro-phenylamino)-pyrimidin-4-yl]-pyridin-2-ylamino}-propyl)-3,3-dimethyl-butyramide] | < 5 | 5 to 15 | > 50 | –
19 | COc1ncccc1-c1ccnc(Nc2cccc([N+](=O)[O-])c2)n1 [Compound 92, [4-(2-Methoxy-pyridin-3-yl)-pyrimidin-2-yl]-(3-nitro-phenyl)-amine] | < 5 | > 50 | > 50 | –
20 | CC(C)(C)C(=O)NCCCNc1ncccc1-c1ccnc(Nc2cccc(Cl)c2)n1 [Compound 70, N-(3-{3-[2-(3-Chloro-phenylamino)-pyrimidin-4-yl]-pyridin-2-ylamino}-propyl)-2,2-dimethyl-propionamide] | < 5 | 5 to 15 | 5 to 15 | –

Second part, led by results:

Row | IC50 (CDK9/cyclinT1) [µM] | IC50 (CDK1/cyclinB; read-out: CDK1 IC50) [µM] | IC50 (CDK2/cyclinA) [µM] | Compound | IC50 (CDK1/cyclinB) [µM]
21 | < 5 | > 50 | < 5 | COc1ncccc1-c1ccnc(Nc2cccc(C(=O)OC(C)(C)C)c2)n1 [Compound 109, 3-[4-(2-Methoxy-pyridin-3-yl)-pyrimidin-2-ylamino]-benzoic acid tert-butyl ester] | –
22 | < 5 | > 50 | < 5 | CCNS(=O)(=O)c1cccc(Nc2nccc(-c3cccnc3OC)n2)c1 [Compound 101, N-Ethyl-3-[4-(2-methoxy-pyridin-3-yl)-pyrimidin-2-ylamino]-benzenesulfonamide] | –
23 | < 5 | 5 to 15 | < 5 | COc1ncccc1-c1ccnc(Nc2cccc(-c3nncn3C)c2)n1 [Compound 111, [4-(2-Methoxy-pyridin-3-yl)-pyrimidin-2-yl]-[3-(4-methyl-4H-[1,2,4]triazo1-3-yl)-phenyl]-amine] | –
24 | > 50 | > 50 | > 50 | COc1ncccc1-c1ccnc(Nc2ccc([N+](=O)[O-])cc2)n1 [Compound 116, [4-(2-Methoxy-pyridin-3-yl)-pyrimidin-2-yl]-(4-nitro-phenyl)-amine] | –
25 | < 5 | > 50 | > 50 | COc1ncccc1-c1ccnc(Nc2cccc(-c3ccccc3)c2)n1 [Compound 115, Biphenyl-3-yl-[4-(2-methoxy-pyridin-3-yl)-pyrimidin-2-yl]-amine] | –
26 | < 5 | < 5 | < 5 | COc1ncccc1-c1ccnc(Nc2cccc(C3CCNCC3)c2)n1 [Compound 113, [4-(2-Methoxy-pyridin-3-yl)-pyrimidin-2-yl]-(3-piperidin-4-yl-phenyl)-amine] | –
27 | < 5 | < 5 | < 5 | CCOC(=O)c1cccc(Nc2nccc(-c3cccnc3OC)n2)c1 [Compound 108, 3-[4-(2-Methoxy-pyridin-3-yl)-pyrimidin-2-ylamino]-benzoic acid ethyl ester] | –
28 | < 5 | < 5 | < 5 | CNS(=O)(=O)c1cccc(Nc2nccc(-c3cccnc3OC)n2)c1 [Compound 100, 3-[4-(2-Methoxy-pyridin-3-yl)-pyrimidin-2-ylamino]-N-methyl-benzenesulfonamide] | –
29 | < 5 | 5 to 15 | 15 to 50 | COc1ncccc1-c1ccnc(Nc2cccc(N3CCCC3)c2)n1 [Compound 106, [4-(2-Methoxy-pyridin-3-yl)-pyrimidin-2-yl]-(3-pyrrolidin-1-yl-phenyl)-amine] | –
30 | > 50 | > 50 | > 50 | COc1ncccc1-c1ccnc(Nc2cccc(C3CCN(C(=O)OC(C)(C)C)CC3)c2)n1 [Compound 114, 4-{3-[4-(2-Methoxy-pyridin-3-yl)-pyrimidin-2-ylamino]-phenyl}-piperidine-1-carboxylic acid tert-butyl ester] | –
31 | < 5 | < 5 | < 5 | COc1ncccc1-c1ccnc(Nc2cccc(NC(C)=O)c2)n1 [Compound 98, N-{3-[4-(2-Methoxy-pyridin-3-yl)-pyrimidin-2-ylamino]-phenyl}-acetamide] | –
32 | < 5 | < 5 | < 5 | COc1ncccc1-c1ccnc(Nc2cccc(S(=O)(=O)NCCO)c2)n1 [Compound 103, N-(2-Hydroxy-ethyl)-3-[4-(2-methoxy-pyridin-3-yl)-pyrimidin-2-ylamino]-benzenesulfonamide] | –
